Measurements taken from paper PMC10539733, “Fluorine NMR study of proline-rich sequences using fluoroprolines” (Magnetic resonance, 2021).
“And” between values parts separate entries of the source, which are not always exact repeats. Equal values may be shown once. Read-outs that look alike come from different tables or passages of the source. Square brackets hold non-standard residues; d marks the D form. Ends that are not written are not given here. Peptide text beside a SMILES is read from it. Pro(trans-4-F) = O=C(O)[C@@H]1C[C@@H](F)CN1; Pro(cis-4-F) = O=C(O)[C@@H]1C[C@H](F)CN1

Assays:
Vinexin β SH3.3 domain [1] = target: T1, Vinexin β SH3.3 domain (Homo sapiens, UniProt O60504); experiment: NMR titration, 1H-15N HSQC chemical shift perturbations of 15N-labelled SH3 domain; type: binding
T1 construct: The Vinexin β SH3.3 was obtained using recombinant expression of a glutathione-S-transferase (GST) fusion protein; GST (N, cleaved yes); made in house; host or cells: Escherichia coli (pGEX plasmids)
T1 sequence (O60504 612-671 limits assumed): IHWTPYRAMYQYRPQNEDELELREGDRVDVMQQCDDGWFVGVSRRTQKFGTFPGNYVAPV
Procedure: In order to measure the binding affinities between the Vinexin β SH3.3 domain and the model peptides, a titration experiment was performed where increasing amounts of peptide were added to a solution of ^15 N-labelled SH3 domain. Apart from MpRS and MpSR peptides, a titration was also performed with a non-fluorinated reference peptide. Just as for most SH3–PRM interaction studies, a gradual frequency shift of a subset of ^1 H– ^15 N correlation peaks in the ^1 H– ^15 N HSQC spectra was observed, indicative of fast exchange between bound and free states of the protein (Fig. 6a). Under this exchange regime, the chemical shifts provide an accurate measure of the bound protein fraction, enabling the determination of an equilibrium dissociation constant Kd (vide infra).
The MpRS and MpSR peptides were produced by solid-phase synthesis using fluorenylmethyloxycarbonyl (Fmoc) amino acids using a model 431A peptide synthesizer from Applied Biosystems (Foster City, CA, USA). Fmoc-protected (4 R )- and (4 S )-FPro amino acids were purchased from Bachem SA. Peptides were purified by reversed-phase HPLC and checked by electrospray ionization and time of flight mass spectrometry (ESI-TOF). The Vinexin β SH3.3 was obtained using recombinant expression of a glutathione-S-transferase (GST) fusion protein in Escherichia coli using pGEX plasmids (Lalevée et al., 2010). After thrombin cleavage, the protein was purified using size-exclusion chromatography and eluted with phosphate buffer (40 mM phosphate, NaCl 100 mM, DTT 2 mM, pH 7). Before titration experiments, a dialysis was performed using 1 and 3 kDa cut-off membrane for the peptide and the protein, respectively, and a common dialysis bath containing the buffer used in interaction experiments. Protein concentrations were determined by measuring the optical density (OD) at 280 nm (molar absorption coefficient 11 460 M ^-1 cm ^-1 ). Peptide concentrations were measured by ^1 H NMR by comparing the integrals of peptide resonances with those of tryptophan of known concentration in a sample containing small amounts (10–30 µM ) of both compounds in D 2 O as described (Kohler et al., 2015). For assignments, lyophilized powder of MpRS and MpSR peptides were dissolved in 170 µL of D 2 O for a final concentration of 1 mM in 3 mm tubes.
Titrations were performed by successive addition of stock peptide solutions to a sample of SH3 protein at 314 µM in a 3 mm NMR tube. In order to reduce the dilution of the initial protein solution and keep the aliquot volumes within values compatible with low pipetting errors (1 to 3 µL ), initial aliquots were added using stock solutions diluted by a factor of 2. The concentrations of the stock solutions were 5.1 and 5.7 mM for MpSR and MpRS, respectively. For every titration point, a 1D ^19 F spectrum and a ^1 H– ^15 N HSQC were recorded at 298K on the same spectrometer, taking advantage of the QCI-F probe. The ^1 H– ^15 N HSQC was recorded using the standard pulse sequence and a 3-9-19 WATERGATE water suppression element. The 200 points were recorded in the indirect dimension to achieve a final resolution of 7.0 and 18.8 Hz per point in the acquisition and indirect dimensions, respectively. The relaxation delay was set to 1 s resulting in a total acquisition time of 16 min. The 1D ^19 F spectra were recorded with a spectral width of 22.522 kHz. The number of scans was adapted to achieve a sufficient signal-to-noise ratio for each concentration of peptide. For the first titration point, at a peptide concentration of 50 µM , 1600 scans were recorded for a total acquisition time of 1 h and 6 min, while 250 scans (10 min acquisition time) were used for the large peptide concentrations.
The composite chemical shift was calculated using […], where ΔδN and ΔδH are the ^15 N and proton chemical shift differences measured between the free protein and the protein in the presence of a given amount of peptide. […]

Vinexin β SH3.3 domain [2] = target: T1, Vinexin β SH3.3 domain; experiment: 19F line width (apparent transverse relaxation) analysis of binding kinetics during titration; conditions: fast exchange approximation, 298 K
Procedure: The exchange line broadening during the titration experiment also reports on the binding kinetics. Thus, the major ^19 F peaks were fitted using a Lorentzian line shape and the line widths obtained in this way provide an estimate of the apparent transverse relaxation constant R2‡ as a function of peptide concentration (Fig. 7b and c), which can be used to derive the binding kinetics. […]
Processing of 1D ^19 F spectra and quantification were performed using an open-source Python package dedicated to Fourier spectroscopies called “Spectrometry Processing Innovative Kernel” (SPIKE) (Chiron et al., 2016). […] Line fitting was done using the least-square minimizer of the Scipy optimize toolbox to find the optimal set of the signal parameters minimizing the squared differences between the experimental and calculated spectra. […]
Titrations were performed by successive addition of stock peptide solutions to a sample of SH3 protein at 314 µM in a 3 mm NMR tube. […] For every titration point, a 1D ^19 F spectrum and a ^1 H– ^15 N HSQC were recorded at 298K on the same spectrometer, taking advantage of the QCI-F probe. The ^1 H– ^15 N HSQC was recorded using the standard pulse sequence and a 3-9-19 WATERGATE water suppression element. The 200 points were recorded in the indirect dimension to achieve a final resolution of 7.0 and 18.8 Hz per point in the acquisition and indirect dimensions, respectively. […]

[3] = target: T2, Vinexin β SH3.3 domain (third SH3 domain of the Vinexin β protein) (UniProt O60504 612-671); experiment: NMR titration; same kind of titration, 298 K; only the 1H-15N chemical shift perturbations of the SH3 domain fitted, 1:1 model; conditions: both partners purified
T2 construct: Vinexin β, third SH3 domain (SH3.3); 15N-labelled for the titrations; source: E. coli, GST fusion protein (pGEX plasmids), thrombin cleavage, purified (size-exclusion chromatography)
T2 sequence (looked up): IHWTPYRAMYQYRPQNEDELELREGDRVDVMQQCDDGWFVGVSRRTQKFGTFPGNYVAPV

[4] = target: T2, Vinexin β SH3.3 domain (third SH3 …); experiment: NMR titration; peptide stock added stepwise to 15N-labelled SH3 at 314 µM in a 3 mm tube, 298 K; 19F shifts of the peptide and 1H/15N shifts of the SH3 fitted simultaneously; 1:1 and 1:2 models compared; conditions: both partners purified
[5] = target: T2, Vinexin β SH3.3 domain (third SH3 …); experiment: NMR titration; 19F line widths (apparent R2) of the peptide against peptide concentration during the titration, fast-exchange approximation; kon fitted independently for each 19F signal, Kd taken from the shift fit; conditions: both partners purified

CC(C)[C@H](NC(=O)[C@H](CCCNC(=N)N)NC(=O)[C@@H]1CCCN1C(=O)[C@@H]1CCCN1C(=O)[C@@H]1CCCN1C(=O)[C@@H]1CCCN1C(=O)[C@@H]1CCCN1C(=O)[C@H](CO)NC(=O)[C@@H]1CCCN1C(=O)[C@@H]1CCCN1C(=O)[C@@H]1CCCN1C(=O)[C@@H]1CCCN1C(=O)[C@@H]1CCCN1)C(=O)N[C@@H](Cc1ccc(O)cc1)C(=O)N[C@@H](CCCCN)C(=O)O [non-fluorinated peptide] (H-PPPPPSPPPPPRVYK-OH; N-terminus and C-terminus assumed)
1H-15N composite chemical shift perturbation, Asn 15 (Vinexin β SH3.3 domain [1]; Vinexin β residue Asn 15): 1.093
1H-15N composite chemical shift perturbation, Asp 17 (Vinexin β SH3.3 domain [1]; Vinexin β residue Asp 17): 2.276
1H-15N composite chemical shift perturbation, Gln 14 (Vinexin β SH3.3 domain [1]; Vinexin β residue Gln 14): 1.949
1H-15N composite chemical shift perturbation, Gly 49 (Vinexin β SH3.3 domain [1]; Vinexin β residue Gly 49): 0.812
1H-15N composite chemical shift perturbation, Leu 21 (Vinexin β SH3.3 domain [1]; Vinexin β residue Leu 21): 0.988
1H-15N composite chemical shift perturbation, Thr 50 (Vinexin β SH3.3 domain [1]; Vinexin β residue Thr 50): 1.881
1H-15N composite chemical shift perturbation, Trp 37 (Vinexin β SH3.3 domain [1]; Vinexin β residue Trp 37): 2.011
1H-15N composite chemical shift perturbation, Val 39 (Vinexin β SH3.3 domain [1]; Vinexin β residue Val 39): 3.214
1H-15N composite chemical shift perturbation, Val 56 (Vinexin β SH3.3 domain [1]; Vinexin β residue Val 56): 1.319

CC(C)[C@H](NC(=O)[C@H](CCCNC(=N)N)NC(=O)[C@@H]1CCCN1C(=O)[C@@H]1CCCN1C(=O)[C@@H]1CCCN1C(=O)[C@@H]1C[C@@H](F)CN1C(=O)[C@@H]1CCCN1C(=O)[C@H](CO)NC(=O)[C@@H]1CCCN1C(=O)[C@@H]1C[C@H](F)CN1C(=O)[C@@H]1CCCN1C(=O)[C@@H]1CCCN1C(=O)[C@@H]1CCCN1)C(=O)N[C@@H](Cc1ccc(O)cc1)C(=O)N[C@@H](CCCCN)C(=O)O [MpSR] (H-PPP[Pro(cis-4-F)]PSP[Pro(trans-4-F)]PPPRVYK-OH)
kon (Vinexin β SH3.3 domain [2]; from 19F line widths of (4 R )-FPro8 signal, read-out: association kinetics constant kon, (4 R )-FPro8 signal): 1.2e+08 M⁻¹ s⁻¹
kon (Vinexin β SH3.3 domain [2]; from 19F line widths of (4 S )-FPro4 signal, read-out: association kinetics constant kon, (4 S )-FPro4 signal): 9e+07 M⁻¹ s⁻¹

B1: MpRS peptide (peptide)
peptide: PPP[Pro(trans-4-F)]PSP[Pro(cis-4-F)]PPPRVYK
notes: P at 4 and 8 stand for fluoroprolines; source: synthetic peptide (Fmoc solid-phase synthesis, reversed-phase HPLC)
Kd [3]: 220 µM
Kd [4]: 273 ± 30 µM
stoichiometry N [4]: 1

B2: non-fluorinated reference peptide (peptide)
chain: PPPPPSPPPPPRVYK
modifications: Synthetic RAR-gamma-based peptide. Sequence converted from the three-letter residue list in Table 1 (Pro1-5, Ser6, Pro7-11, Arg12-Val13-Tyr14-Lys15), with plain proline at positions 4 and 8. The …
Kd [3]: 74 ± 25 µM

B3: MpSR peptide (peptide)
peptide: PPP[Pro(cis-4-F)]PSP[Pro(trans-4-F)]PPPRVYK
notes: P at 4 and 8 stand for fluoroprolines; Two segments of five prolines separated by one serine, followed by RVYK; source: synthetic peptide (Fmoc solid-phase synthesis, reversed-phase HPLC)
Kd [3]: 75 µM
kon [5]: 9e+07 M⁻¹ s⁻¹ and 1.2e+08 M⁻¹ s⁻¹
Kd [4]: 96 ± 30 µM
stoichiometry N [4]: 1
